EP4800013A1, “PARG INHIBITOR” (Shanghai Qilu Pharmaceutical Research and Development …, priority 2023, dated 2025)

System: KURAMOCHI cells
Assay: Inhibition of proliferation of KURAMOCHI cells (CellTiter-Glo, intracellular ATP)
Format: cell-based
Settings: 168 h, incubated for 7 days, read-out: IC50 against KURAMOCHI cells
Procedure: In this experiment, the inhibitory effect of the compounds of the present disclosure on the proliferation of the cancer cell line KURAMOCHI was evaluated by measuring intracellular ATP levels using a bioluminescent assay, and the half maximal inhibitory concentration (IC50) was determined.
RPMI 1640 medium (Cat. No. 11875-093), fetal bovine serum (10099-141), and 100× Pen/Strep (15070-063) were purchased from GIBCO. CellTiter-Glo Luminescent Cell Viability Assay reagent (Cat. No. G7573) was purchased from Promega.
• 1) Day 1: KURAMOCHI cells were counted using a cell counter and seeded into a 96-well culture plate at a density of 4000 cells per well in 100 µL medium. The plate was incubated overnight in an incubator (37°C, 5% CO2). • 2) Day 2: Using a D300e digital dispenser (TECAN), 500 nL of serially diluted test compounds of the present disclosure (starting at 10 µM, a total of 9 concentrations, 1:4 dilution) were added to the cells in the culture plate. The final concentration of DMSO was 0.5%. The cell culture plate was incubated for 7 days in a cell culture incubator (37°C, 5% CO2). Control group 1 received only medium and DMSO (100% inhibition group). Control group 2 received only DMSO (0% inhibition group). The final concentration of DMSO in both groups was 0.5%. • 3) Day 9: 100 µL of CellTiter-Glo reagent was added to each well. The plate was shaken at 500 rpm for 2 minutes, centrifuged at 1000 rpm for 1 minute, and then incubated at room temperature in the dark for 10 minutes to stabilize the luminescence signal. • 4) Luminescence signals were measured using an EnVision microplate reader (PerkinElmer). • 5) Data analysis was performed using GraphPad Prism 8. The IC50 values of the compounds of the present disclosure were calculated as follows. The CTG signal values were analyzed. The average inhibition rate of control group 1 (100% inhibition group) was set as the relative inhibition rate of 100%. The average inhibition rate of control group 2 (0% inhibition group) was set as the relative inhibition rate of 0%. The CTG signal values were converted into relative inhibition rates. The inhibition percentage (inhibition%) for each concentration of the compounds of the present disclosure was calculated according to the following formula: Inhibition% = (b−x)/(b−a)*100%; [formula] • a = CTG value (highest concentration), b = CTG value (blank well), x = CTG value (test well). • IC50 was calculated using GraphPad Prism 8. • (1) The concentration and inhibition rate corresponding to each well were recorded. Statistical calculation was performed using Log10 (compound concentration). • (2) The data were input into GraphPad Prism 8 and Analysis was selected. • (3) Nonlinear regression (curve fit) was selected. • (4) Log (inhibitor) vs. response - Variable slope was selected. • (5) The calculation formula was selected, and the calculation was performed according to the following formula: Y = Bottom + (Top - Bottom) / (1 + 10 ^ ((LogIC50 - X) * HillSlope)); X: log of dose or concentration; Y: response; Top and Bottom: maximum and minimum response. • (6) The IC50 values were calculated by fitting the data. Table 16: Inhibitory effect of the compounds of the present disclosure on the proliferation of KURAMOCHI cells

SMILES	IC50 [nM]
C[C@H]1CN(c2cc(S(=O)(=O)NC3(C)CC3)cc3c2nnn3-c2nnc(C(F)F)s2)C[C@H](C)N1 [Compound 008B]	9
C[C@H]1CN(c2cc(S(=O)(=O)NC3(C)CC3)cc3c(-c4nnc(C(F)F)s4)noc23)C[C@H](C)N1 [Compound 021B]	11
C=CCn1c(=O)n(-c2nnc(C(F)F)s2)c2cc(S(=O)(=O)NC3(C#N)CC3)cc(N3CC4CC3CN4S(=O)(=O)C(C)C)c21 (centres unmarked) [Compound 069E]	55
C=CCn1c(=O)n(-c2nnc(C(F)F)s2)c2cc(S(=O)(=O)NC3(C#N)CC3)cc(N3CCN(C(=O)C4CC(F)(F)C4)CC3)c21 [Compound 072D]	52
C[C@H]1CN(c2cc(S(=O)(=O)NC3(C)CC3)cc3c2nc(-c2nccs2)n3-c2nnc(C(F)F)s2)C[C@H](C)N1 [Compound 077S]	58
C=CC1CN(c2cc(S(=O)(=O)NC3(C)CC3)cc3c2cnn3-c2nnc(C(F)F)s2)C[C@H](C)N1 (some centres unmarked) [Compound 078A]	30
C#CC1CN(c2cc(S(=O)(=O)NC3(C)CC3)cc3c2cnn3-c2nnc(C(F)F)s2)C[C@H](C)N1 (some centres unmarked) [Compound 078B]	34
C=C[C@H]1CN(c2cc(S(=O)(=O)NC3(C)CC3)cc3c2cnn3-c2nnc(C(F)F)s2)C[C@H](C=C)N1 [Compound 078C]	15

Molecular target: T1, PARG (Homo sapiens, UniProt Q86W56)
T1 construct: made in house
T1 sequence (Q86W56 whole entry): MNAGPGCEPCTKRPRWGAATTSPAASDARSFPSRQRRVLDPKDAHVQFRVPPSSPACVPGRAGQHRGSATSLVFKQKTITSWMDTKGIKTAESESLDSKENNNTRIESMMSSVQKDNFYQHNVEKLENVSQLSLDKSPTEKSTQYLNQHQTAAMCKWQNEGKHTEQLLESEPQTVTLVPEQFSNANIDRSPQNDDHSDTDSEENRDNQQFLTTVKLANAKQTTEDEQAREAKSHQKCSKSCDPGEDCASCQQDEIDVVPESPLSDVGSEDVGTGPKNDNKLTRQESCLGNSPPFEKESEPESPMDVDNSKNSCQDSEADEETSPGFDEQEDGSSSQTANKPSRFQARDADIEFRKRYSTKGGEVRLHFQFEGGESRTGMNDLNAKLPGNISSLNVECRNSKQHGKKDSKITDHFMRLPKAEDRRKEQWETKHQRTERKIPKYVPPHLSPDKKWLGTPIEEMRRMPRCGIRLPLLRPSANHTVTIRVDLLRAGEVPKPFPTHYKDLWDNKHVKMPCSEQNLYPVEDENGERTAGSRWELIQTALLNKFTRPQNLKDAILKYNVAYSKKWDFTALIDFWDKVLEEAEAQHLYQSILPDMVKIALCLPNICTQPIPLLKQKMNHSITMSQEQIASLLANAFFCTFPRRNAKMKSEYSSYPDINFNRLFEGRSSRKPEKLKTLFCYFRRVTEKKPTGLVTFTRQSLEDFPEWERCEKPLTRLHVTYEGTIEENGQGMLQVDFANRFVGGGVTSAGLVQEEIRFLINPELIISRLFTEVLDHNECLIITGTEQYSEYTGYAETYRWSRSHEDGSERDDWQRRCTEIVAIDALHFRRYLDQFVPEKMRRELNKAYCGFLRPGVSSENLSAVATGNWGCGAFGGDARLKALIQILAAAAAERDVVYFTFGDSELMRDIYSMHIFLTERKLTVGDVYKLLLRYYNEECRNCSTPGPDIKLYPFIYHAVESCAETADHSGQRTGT
Assay: Enzymatic inhibitory activity against PARG, HTRF assay
Format: biochemical
Settings: HTRF; PARylated PARP1 protein as substrate; 60 minutes at room temperature; read-out: IC50 against PARG enzyme
Procedure: In this experiment, the enzymatic inhibitory activity of the compounds of the present disclosure against PARG was determined using an HTRF (homogeneous time-resolved fluorescence) assay.
HTRF assay reagents were purchased from PerkinElmer (Cat. Nos. 61HISTLB and 610SAXLB). The purified protein was prepared in-house.
PARG enzyme reaction buffer: 50 mM Tris (pH 7.4), 0.1 mg/mL BSA, 3 mM EDTA, 0.4 mM EGTA, 1 mM DTT, 50 mM KCl, and 0.01% Tween 20.
• 1) Using an ultra-micro pipette, the compounds of the present disclosure were serially diluted (starting at 10 µM with 3- to 5-fold serial dilutions) and added to a 384-well reaction plate, with each concentration tested in duplicate wells. Control group 1 was added with 10 µM control compound (100% inhibition group). Control group 2 was added with DMSO (0% inhibition group). After compound addition, the 384-well plate was centrifuged at 1000 rpm for 1 minute. • 2) 2.5 µL of PARG protein was added to each well and incubated with the compounds of the present disclosure at room temperature for 15 minutes, followed by centrifugation at 1000 rpm for 1 minute. • 3) 2.5 µL of PARylated PARP1 protein was added to each well and incubated at room temperature for 60 minutes, followed by centrifugation at 1000 rpm for 1 minute. • 4) 5 µL of His-Tb & SA-XL665 HTRF assay reagents were added to each well and incubated at room temperature for 60 minutes, followed by centrifugation at 1000 rpm for 1 minute. • 5) […] were measured using a PHERAstar FSX microplate reader from BMG. • 6) Data analysis was performed using GraphPad Prism 8. The IC50 values of the compounds of the present disclosure were calculated as follows. […] The average value of duplicate wells in control group 2 (0% inhibition group) was set as the relative inhibition rate of 0%. The HTRF signal values were converted into relative inhibition rates. The IC50 values of the compounds were calculated by fitting the data to a four-parameter logistic model. Table 15: Enzymatic inhibitory activity of the compounds of the present disclosure against PARG

SMILES	IC50 [nM]
C[C@H]1CN(c2cc(S(=O)(=O)NC3(C)CC3)cc3c2nnn3-c2nnc(C(F)F)s2)C[C@H](C)N1 [Compound 008B]	9.6
CC(C)S(=O)(=O)N1CCN(c2cc(S(=O)(=O)NC3(C#N)CC3)cc3c2nc(OC2CC2)n3-c2nnc(C(F)F)s2)CC1 [Compound 057P]	29.3
C=CCn1c(=O)n(-c2nnc(C(F)F)s2)c2cc(S(=O)(=O)NC3(C#N)CC3)cc(N3CCN(c4ncc[nH]4)CC3)c21 [Compound 067JD]	31.6
C=CCn1c(=O)n(-c2nnc(C(F)F)s2)c2cc(S(=O)(=O)NC3(C#N)CC3)cc(N3CCN(C(=O)NC)CC3)c21 [Compound 067M]	29
C=CCn1c(=O)n(-c2nnc(C(F)F)s2)c2cc(S(=O)(=O)NC3(C#N)CC3)cc(N3CCN(C(=O)C(C)C)[C@H](C)C3)c21 [Compound 069D]	23.5
CC(C)C(=O)N1CCN(c2cc(S(=O)(=O)NC3(C#N)CC3)cc3c2n(CC#N)c(=O)n3-c2nnc(C(F)F)s2)CC1 [Compound 074J]	10.8
C=CCn1c(=O)n(-c2nnc(C(F)F)s2)c2cc(S(=O)(=O)NC3(C#N)CC3)cc(N3CCN(S(=O)(=O)c4ccn(C)n4)CC3)c21 [Compound 075B]	35.7
C=CCn1c(=O)n(-c2nnc(C(F)F)s2)c2cc(S(=O)(=O)NC3(C#N)CC3)cc(N3CCN(C(=O)C(C)(C)NC(=O)OC)CC3)c21 [Compound 076A]	13
C=CCn1c(=O)n(-c2nnc(C(F)F)s2)c2cc(S(=O)(=O)NC3(C#N)CC3)cc(N3CCN(C(=O)C4(C)CCCN4)CC3)c21 (centres unmarked) [Compound 076B]	9.7
C=CCn1c(=O)n(-c2nnc(C(F)F)s2)c2cc(S(=O)(=O)NC3(C#N)CC3)cc(N3CCN(C(=O)C4CCCN4)CC3)c21 (centres unmarked) [Compound 076C]	8.6
C=CCn1c(=O)n(-c2nnc(C(F)F)s2)c2cc(S(=O)(=O)NC3(C#N)CC3)cc(N3CCN(C(=O)C4CCCN4C)CC3)c21 (centres unmarked) [Compound 076D]	14.7
C=CCn1c(=O)n(-c2nnc(C(F)F)s2)c2cc(S(=O)(=O)NC3(C#N)CC3)cc(N3CCN(C(=O)[C@@H]4CCC5(CC5)N4)CC3)c21 [Compound 076F1]	30.6
C=CCn1c(=O)n(-c2nnc(C(F)F)s2)c2cc(S(=O)(=O)NC3(C#N)CC3)cc(N3CCN(C(=O)C4CCC(=O)N4)CC3)c21 (centres unmarked) [Compound 076G]	9
C[C@H]1CN(c2cc(S(=O)(=O)NC3(C#N)CC3)cc3c2nc(C2CCCO2)n3-c2nnc(C(F)F)s2)C[C@H](C)N1 (some centres unmarked) [Compound 077J]	10.4
C[C@H]1CN(c2cc(S(=O)(=O)NC3(C)COC3)cc3c2nc(C2CCCO2)n3-c2nnc(C(F)F)s2)C[C@H](C)N1 (some centres unmarked) [Compound 077K]	12.8
C[C@H]1CN(c2cc(S(=O)(=O)NC3(C)CC3)cc3c2nc(C2CNCCO2)n3-c2nnc(C(F)F)s2)C[C@H](C)N1 (some centres unmarked) [Compound 077Y]	10.3
C[C@H]1CN(c2cc(S(=O)(=O)NC3(C)CC3)cc3c2nc([C@@H]2CC4(CC4)CO2)n3-c2nnc(C(F)F)s2)C[C@H](C)N1 [Compound 079M2]	1.9
C[C@H]1CN(c2cc(S(=O)(=O)NC3(C)CC3)cc3c2nc(C2CCOC2)n3-c2nnc(C(F)F)s2)C[C@H](C)N1 (some centres unmarked) [Compound 079N]	6.2
C[C@H]1CN(c2cc(S(=O)(=O)NC3(C)CC3)cc3c2cc(N=S(C)(C)=O)n3-c2nnc(C(F)F)s2)C[C@H](C)N1 [Compound 082E]	5.5
CN(C)C(=O)N1CCN(c2cc(S(=O)(=O)NC3(C#N)CC3)cc3c2n(CC(F)(F)F)c(=O)n3-c2nnc(C(F)F)s2)CC1 [Compound A044]	7
C=CCn1c(=O)n(-c2nnc(C(F)F)s2)c2cc(S(=O)(=O)NC3(C#N)CC3)cc(N3CCN(C(=O)NC4CC4)CC3)c21 [Compound A054]	38.6
CC(C)C(=O)N1CCN(c2cc(S(=O)(=O)NC3(C#N)CC3)cc3c2n(C2CC2)c(=O)n3-c2nnc(C(F)F)s2)CC1 [Compound A055]	11.9
CC(C)S(=O)(=O)N1CCN(c2cc(S(=O)(=O)NC3(C#N)CC3)cc3c2n(C2CC2)c(=O)n3-c2nnc(C(F)F)s2)CC1 [Compound A056]	5.2
C[C@H]1CN(c2cc(S(=O)(=O)NC3(C)CC3)cc3c2ncn3-c2nnc(C(F)F)s2)C[C@H](C)N1 [Compound B004]	15.6
C[C@H]1CN(c2cc(S(=O)(=O)NC3(C)CC3)cc3c2ncn3-c2nnc(C(F)F)s2)C[C@H](C)N1C(=O)N(C)C [Compound B005]	11.5
CC(C)(O)C(=O)N1CCN(c2cc(S(=O)(=O)NC3(C#N)CC3)cc3c2ncn3-c2nnc(C(F)F)s2)CC1 [Compound B015]	15.8
CN(C)C(=O)N1CC=C(c2cc(S(=O)(=O)NC3(C#N)CC3)cc3c2ncn3-c2nnc(C(F)F)s2)CC1 [Compound B022]	18.7
CC(C)C(=O)N1CC=C(c2cc(S(=O)(=O)NC3(C#N)CC3)cc3c2ncn3-c2nnc(C(F)F)s2)CC1 [Compound B023]	16.7
C[C@H]1CN(c2cc(S(=O)(=O)NC3(C)CC3)cc3c2n2ccnc2n3-c2nnc(C(F)F)s2)C[C@H](C)N1 [Compound B024]	16.5
C[C@H]1CN(c2cc(S(=O)(=O)NC3(C)CC3)cc3c2c2nccnc2n3-c2nnc(C(F)F)s2)C[C@H](C)N1 [Compound H001]	1.1
